Data from paper PMC9783573, “Introduction of a SiFA Moiety into the D-Glutamate Chain of DOTA-PP-F11N Results in Radiohybrid-Based CCK-2R-Targeted Compounds with Improved Pharmacokinetics In Vivo” (Pharmaceuticals, 2022).
Non-standard residues stand in square brackets, D forms with d. Residues, ends and D or L forms follow the SMILES beside them. *: point of attachment. X1 = O=C(O)CN1CCN(CC(=O)O)CCN([C@H](CCC(=O)*)C(=O)O)CCN(CC(=O)O)CC1; Benzoyl(4-SiFtBu2) = CC(C)(C)[Si](F)(c1ccc(C(=O)*)cc1)C(C)(C)C; Nle = CCCC[C@H](N)C(=O)O; dDap = NC[C@@H](N)C(=O)O

How the values were obtained:
CCK-2R = molecular target: T1, CCK-2R (Rattus norvegicus, UniProt P30553); experiment: Competitive binding (IC50) on AR42J cells with [177Lu]Lu-DOTA-PP-F11N as radiolabelled reference; details: natLu-labelled peptide; AR42J cells 2.0 × 10^5/well, 3 h, 37 °C, [177Lu]Lu-DOTA-PP-F11N 0.3 pmol/well
T1 construct: CCK-2R expressing rat pancreatic cancer cells AR42J (CLS GmbH, Eppelheim,; host or cells: AR42J rat pancreatic cancer cells
T1 sequence (P30553 1-452): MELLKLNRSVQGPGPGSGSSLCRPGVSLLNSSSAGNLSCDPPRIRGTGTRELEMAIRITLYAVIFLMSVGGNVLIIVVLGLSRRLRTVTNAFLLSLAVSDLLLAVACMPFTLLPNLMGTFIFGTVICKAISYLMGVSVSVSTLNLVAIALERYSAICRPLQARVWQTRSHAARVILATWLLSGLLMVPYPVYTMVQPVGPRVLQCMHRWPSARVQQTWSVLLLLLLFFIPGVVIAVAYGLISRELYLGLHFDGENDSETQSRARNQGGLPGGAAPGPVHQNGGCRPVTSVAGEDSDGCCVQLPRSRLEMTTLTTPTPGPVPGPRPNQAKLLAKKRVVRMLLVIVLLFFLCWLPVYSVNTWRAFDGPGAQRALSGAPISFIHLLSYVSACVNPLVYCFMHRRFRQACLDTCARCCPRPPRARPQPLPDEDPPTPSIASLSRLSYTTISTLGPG
Procedure: Detailed description of all cell-based experiments is provided in the Supplementary Materials. In brief, competitive binding studies were conducted on AR42J cells (2.0 × 10^5 cells per 1 mL/well) via incubation at 37 °C for 3 h using [^177Lu]Lu-DOTA-PP-F11N (0.3 pmol) as a radiolabelled reference (n = 3).
Cell Culture. CCK-2R expressing rat pancreatic cancer cells AR42J (CLS GmbH, Eppelheim, Germany) were cultivated in monolayers in CELLSTAR ® cell culture flasks acquired from Greiner Bio-One GmbH (Frickenhausen, Germany) at 37 °C in a humidified atmosphere (5% CO2) using a HERAcell 150i-Incubator (Thermo Fisher Scientific Inc., Waltham, United States). As nutrient medium RPMI 1640 medium, supplemented with 5 mM L-Gln 5 mL non-essential amino acids (100×) and 10% FCS, was used. Furthermore, a Dulbecco’s PBS solution with 0.1% EDTA (v/v) was applied to detach the cells for cell passaging. The detached cells were counted using a Neubauer hemocytometer ( Paul Marienfeld, Lauda-Königshofen, Germany). In addition, all operations under sterile conditions were accomplished using a MSC-Advantage safety workbench (Thermo Fisher Scientific Inc., Waltham, United States).
Determination of IC50. AR42J cells (2.0 × 10^5 cells/well) were seeded into 24-well plates 24 ± 2 h prior to testing, using 1 mL of nutrient medium (RPMI 1640, 5 mM L-Gln, 5 mL non-essential amino acids (100×), 10% FCS). Cells were incubated at 37 °C in a humidified atmosphere (5% CO2).
After removal of the medium, each well was washed with 500 μL PBS. For the cell-based assay, 200 μL of nutrient medium (+5% BSA), [177Lu]Lu-DOTA-PP-F11N (25 μL, 0.3 pmol) as a radiolabeled reference and 25 μL of the peptide of interest in increasing concentrations (10−10 to 10−4 M) in triplicate were added to the cells. Thereafter, the assay was incubated for 3 h at 37 °C and thereafter, the supernatant was collected. The cells were washed with 300 μL PBS and the collected supernatant fractions were unified.
After lysis of the cells with NaOH (300 μL, 1 N) for 15 min, the respective wells were washed with NaOH (300 μL, 1 N) and both fractions were unified. The radioactivity of both, the supernatant and the lysed fractions was quantified using a γ-counter (PerkinElmer Inc., Waltham, United States ). The obtained data were evaluated via the GraphPad PRISM software ( GraphPad Software Inc., La Jolla, United States), which calculates the halfmaximal inhibitory concentration ( IC50) of the peptides. […]

[1] = Lipophilicity, n-octanol/PBS (pH 7.4) distribution coefficient; type: physicochemical; details: 177Lu-labelled peptide; n-octanol/PBS pH 7.4; read-out: logD7.4
Procedure: Lipophilicity (depicted as octanol-phosphate-buffered saline solution (PBS, pH = 7.4) distribution coefficient, logD7.4) was determined via dissolving the ^177Lu-labelled peptide (approx. 1 MBq) in a mixture (1/1, v/v) of n-octanol and PBS. The suspension was vortexed in a reaction vial (1.5 mL) for 3 min at RT and the vial was centrifuged at 9000× […] for 5 min (Biofuge 15, Heraus Sepatech GmbH, Osterode, Germany). 200 μL aliquots of both layers were measured separately in a γ-counter (Perkin Elmer, Waltham, MA, USA). The experiment was repeated at least five times.

With `CCCC[C@H](NC(=O)[C@H](Cc1c[nH]c2ccccc12)NC(=O)CNC(=O)[C@H](Cc1ccc(O)cc1)NC(=O)[C@H](C)NC(=O)[C@@H](CCC(=O)O)NC(=O)[C@@H](CCC(=O)O)NC(=O)[C@@H](CNC(=O)c1ccc([Si](F)(C(C)(C)C)C(C)(C)C)cc1)NC(=O)[C@@H](CCC(=O)O)NC(=O)[C@@H](CCC(=O)O)NC(=O)[C@@H](CCC(=O)O)NC(=O)[C@@H](CCC(=O)O)NC(=O)CC[C@H](C(=O)O)N1CCN(CC(=O)O)CCN(CC(=O)O)CCN(CC(=O)O)CC1)C(=O)N[C@@H](CC(=O)O)C(=O)N[C@@H](Cc1ccccc1)C(N)=O` [[nat/177Lu]Lu-(R)-DOTAGA-rhCCK-3, metal not drawn] (X1-[dE][dE][dE][dE][dDap](Benzoyl(4-SiFtBu2))[dE][dE]AYGW[Nle]DF-NH2) the IC50 (CCK-2R) was 156 ± 4 nM and the logD [1] was -2.03 ± 0.1.
